Test results: patent US7947262B2, “Use of fullerenes for the treatment of mast cell and basophil-mediated disease” (Virginia Commonwealth University, priority 2006, dated 2011)

Tests used:
skin MC [1] = test system: skin MC
Experimental: (§3) A bar graph illustrating the effects of fullerenes on skin MC and PBB viability Cells were cultured with (poly; white bars, N-ethyl; striped bars) or without (black bars) fullerenes (10 mg/ml) for the indicated times. Cells were washed and viability assessed by trypan blue exclusion. Results are representative of 3 experiments from different donors.
(§4) The effects of water soluble fullerene derivatives (Poly; polyhydroxy C60 and N-ethyl; N-ethyl-polyamino C60) on cell growth and viability were tested. Cells were incubated for up to 72 hours and total cell numbers were assessed along with trypan blue exclusion.

IgE-DNP-sensitized mice = experiment: IgE-induced systemic anaphylaxis in vivo; conditions: intravenously (50 ng/ml) overnight before DNP-BSA challenge; FIG. 6
Experimental: FIG. 6. […] Mice (3-5 per group; n=2 separate experiments) were sensitized with or without (Δ) DNP-IgE overnight. The mice were then given vehicle alone (▪) or fullerenes (▾=Poly C60; ●=N-ethyl C60) intravenously (50 ng/ml) overnight. The next morning the animals were challenged with DNP-BSA (100 μg/ml) and the core body temperature measured for up to 30 minutes. Serum histamine levels were measured by ELISA. A, data represented with line graphs; B, data represented with bar graphs.
Systemic anaphylaxis is predominately driven by the activation of MC and PBB through IgE-FceRI crosslinking (45;61). […] Thus, we hypothesized that they could inhibit MC and PBB-induced anaphylaxis in vivo using IgE-sensitized mice. […] In addition, there was a significant reduction in serum histamine levels with the fullerene preincubation.
To test inhibition of mouse anaphylaxis, mice are injected intraperitoneally (IP) with 50 μg of DNP-specific IgE. After approximately 4 to 6 hours the mice (triplicate) are injected with or without different concentrations of fullerenes. The next day cells are injected IP with DNP-HSA (100 μg, Sigma-Aldrich). […] After 30 minutes, mice are sacrificed, and cardiac puncture is used to obtain plasma, from which histamine and other mediators are measured by ELISA. […]

PBB [2] = experiment: Cellular ROS levels after antigen challenge (DCF dye, FACS); type: cell-based, human; conditions: preincubation, then NIP-BSA 100 ng/ml for 30 min; FIG. 5
Experimental: (§1) Skin MC (grey) or PBB (white) were sensitized overnight with anti-NIP-IgE (1 μg/ml). Cells were activated for 30 min with NIP-BSA (100 ng/ml) with or without preincubation with the indicated concentrations of fullerenes or N-acetyl-L-cysteine (NAC; 10 μmol). Cellular ROS levels were detected by incubating the cells in the ROS indicating dye 5-(and-6)-carboxy-2′,7′-dichlorodihydrofluorescein diacetate (DCF) followed by FACS analysis. The results are representative of 3 separate MC or PBB cultures. The * or # indicates statistically significant changes in ROS levels for MC and PBB, respectively (p<0.05). A, polyhydroxy C60 fullerenes; B, N-ethyl-polyamine C60 fullerenes.
(§2) To investigate the mechanism by which these fullerenes inhibit allergic mediator release from skin MC and PBB, the effect these compounds have on ROS levels within the cell after antigen stimulation was tested.

skin MC [3] = experiment: as above; type: cell-based, human; conditions: preincubation, then NIP-BSA 100 ng/ml for 30 min; FIG. 5
Experimental: as §1, §2

skin MC [4] = experiment: Cellular localization by immunohistochemistry with anti-C60 fullerene Ab; type: cell-based, human; conditions: 4 hours incubation; Polyhydroxy C60 10 ng/ml, N-ethyl-polyamino C60 0.1 μg/ml; FIG. 4
Experimental: Skin MC (a-d) or PBB (e, f) were incubated with Polyhydroxy C60 (10 ng/ml; a, b, c, f) or N-ethyl-polyamino C60 (0.1 μg/ml; d, f) for 4 hours, washed and cytocentrifuged onto slides. The cytocentrifuge preparations were incubated with anti-C60 fullerene Abs (c, d, e, f) or with an isotype-matched control (a, b) overnight. The cytospins were washed and incubated with a 1:50 dilution of peroxidase-conjugated, anti-mouse Abs and developed with AEC as described. Photographs a and b are the same field taken under phase-contrast (a) or light (b) at a magification of 400×. Pictures c-f were taken under light at a magification of 1000×.
To access the cellular localization if the fullerenes within human MC, these cells were incubated with the water soluble fullerenes and immunohistochemistry was assessed using a fullerene-specific antibody Ab (59;60).

PBB [5] = test system: PBB
Experimental: as §3, §4

Substance	total cell numbers (skin MC [1])	IgE-induced anaphylaxis (IgE-DNP-sensitized mice)	cellular ROS levels (PBB [2])	cellular ROS levels (skin MC [3])	cellular localization of fullerenes (skin MC [4])	total cell numbers (PBB [5])
N-ethyl-polyamino C60	None of the fullerenes demonstrated a significant affect	inhibit IgE-induced anaphylaxis	inhibit ROS production	inhibit ROS production	localize within the cytoplasm of MC	None of the fullerenes demonstrated a significant affect
polyhydroxy C60	None of the fullerenes demonstrated a significant affect	inhibit IgE-induced anaphylaxis	inhibit ROS production	inhibit ROS production	localize within the cytoplasm of MC	None of the fullerenes demonstrated a significant affect
